Experimental data as given in patent US20220125051A1, “PRE-HARVEST DESICCATION METHOD” (SYNGENTA CROP PROTECTION AG, priority 2019, published 2022).
Where two headings read alike, the source gives them in different places.

Assays:
Experiment in all cases: Post-emergence efficacy, Method A
Format in all cases: in vivo
[1] = system: Digitaria sanguinalis (DIGSA); conditions: Digitaria sanguinalis, post-emergence, 312 h, evaluated after 13 days
How it was run: (§1)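 Plants grown 14 days in glasshouse (24/16 °C, 14 h light, 65% humidity) were sprayed with compound formulated in IF50. The spray was diluted in 0.25% or 1% Empicol ESC70 plus 1% ammonium sulphate. Damage was scored 13 days later on a 0-100 scale, where 100 is total damage.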

[2] = system: Euphorbia heterophylla (EPHHL); conditions: Euphorbia heterophylla, post-emergence, 312 h, evaluated after 13 days
How it was run: as §1

[3] = system: Echinochloa crus-galli (ECHCG); conditions: Echinochloa crus-galli, post-emergence, 312 h, evaluated after 13 days
How it was run: as §1

Lolium perenne (LOLPE) = conditions: Lolium perenne, post-emergence, 312 h, evaluated after 13 days
How it was run: as §1

[4] = system: Ipomoea hederacea (IPOHE); conditions: Ipomoea hederacea, post-emergence, 312 h, evaluated after 13 days
How it was run: as §1

Setaria faberi (SETFA) = conditions: Setaria faberi, post-emergence, 312 h, evaluated after 13 days
How it was run: as §1

[5] = system: Amaranthus palmeri (AMAPA); conditions: Amaranthus palmeri, post-emergence, 312 h, evaluated after 13 days
How it was run: as §1

[6] = system: Chenopodium album (CHEAL); conditions: Chenopodium album, post-emergence, 312 h, evaluated after 13 days
How it was run: as §1

Eleusine indica (ELEIN) = conditions: Eleusine indica, post-emergence, 312 h, evaluated after 13 days
How it was run: as §1

[7] = Application rate 500 g/Ha, 100=total damage to plant, 0=no damage to plant, read-out: Control of weed species after post-emergence application, DIGSA
[8] = Application rate 500 g/Ha, 100=total damage to plant, 0=no damage to plant, read-out: Control of weed species after post-emergence application, EPHHL
[9] = Application rate 500 g/Ha, 100=total damage to plant, 0=no damage to plant, read-out: Control of weed species after post-emergence application, ECHCG
[10] = Application rate 500 g/Ha, 100=total damage to plant, 0=no damage to plant, read-out: Control of weed species after post-emergence application, LOLPE
[11] = Application rate 500 g/Ha, 100=total damage to plant, 0=no damage to plant, read-out: Control of weed species after post-emergence application, IPOHE
[12] = Application rate 500 g/Ha, 100=total damage to plant, 0=no damage to plant, read-out: Control of weed species after post-emergence application, SETFA
[13] = Application rate 500 g/Ha, 100=total damage to plant, 0=no damage to plant, read-out: Control of weed species after post-emergence application, AMAPA
[14] = Application rate 500 g/Ha, 100=total damage to plant, 0=no damage to plant, read-out: Control of weed species after post-emergence application, CHEAL
[15] = Application rate 500 g/Ha, 100=total damage to plant, 0=no damage to plant, read-out: Control of weed species after post-emergence application, ELEIN
[16] = Application Rate 500 g/Ha, Method A, read-out: Control of weed species after post-emergence application, DIGSA (100=total damage to plant; 0=no damage to plant)
[17] = Application Rate 500 g/Ha, Method A, read-out: Control of weed species after post-emergence application, EPHHL (100=total damage to plant; 0=no damage to plant)
[18] = Application Rate 500 g/Ha, Method A, read-out: Control of weed species after post-emergence application, ECHCG (100=total damage to plant; 0=no damage to plant)
[19] = Application Rate 500 g/Ha, Method A, read-out: Control of weed species after post-emergence application, LOLPE (100=total damage to plant; 0=no damage to plant)
[20] = Application Rate 500 g/Ha, Method A, read-out: Control of weed species after post-emergence application, IPOHE (100=total damage to plant; 0=no damage to plant)
[21] = Application Rate 500 g/Ha, Method A, read-out: Control of weed species after post-emergence application, SETFA (100=total damage to plant; 0=no damage to plant)
[22] = Application Rate 500 g/Ha, Method A, read-out: Control of weed species after post-emergence application, AMAPA (100=total damage to plant; 0=no damage to plant)
[23] = Application Rate 500 g/Ha, Method A, read-out: Control of weed species after post-emergence application, CHEAL (100=total damage to plant; 0=no damage to plant)
[24] = Application Rate 500 g/Ha, Method A, read-out: Control of weed species after post-emergence application, ELEIN (100=total damage to plant; 0=no damage to plant)

Row | SMILES | pest or weed control at 500 g/ha [1, 7] | pest or weed control at 500 g/ha [2, 8] | pest or weed control at 500 g/ha [3, 9] | pest or weed control at 500 g/ha (Lolium perenne (LOLPE); [10]) | pest or weed control at 500 g/ha [4, 11] | pest or weed control at 500 g/ha (Setaria faberi (SETFA); [12]) | pest or weed control at 500 g/ha [5, 13] | pest or weed control at 500 g/ha [6, 14] | pest or weed control at 500 g/ha (Eleusine indica (ELEIN); [15]) | pest or weed control at 500 g/ha [1, 16] | pest or weed control at 500 g/ha [2, 17] | pest or weed control at 500 g/ha [3, 18] | pest or weed control at 500 g/ha (Lolium perenne (LOLPE); [19]) | pest or weed control at 500 g/ha [4, 20] | pest or weed control at 500 g/ha (Setaria faberi (SETFA); [21]) | pest or weed control at 500 g/ha [5, 22] | pest or weed control at 500 g/ha [6, 23] | pest or weed control at 500 g/ha (Eleusine indica (ELEIN); [24])
1 | Cc1cnc(-c2cc[n+](CCS(=O)(=O)[O-])nc2)c(C)c1 [Compound A152] | 30% | 20% | 20% | 10% | 0% | 20% | 20% | 10% | 20% | – | – | – | – | – | – | – | – | –
2 | Cc1cnc(-c2cc[n+](CCC(=O)O)nc2)c(F)c1 [Compound A178] | – | – | – | – | – | – | – | – | – | 10% | 40% | 10% | 0% | 20% | 10% | 90% | 70% | 0%
3 | CC(C)(CC(=O)O)[n+]1ccc(-c2ccncn2)cn1 [Compound A189] | – | – | – | – | – | – | – | – | – | 50% | 90% | 80% | 30% | 70% | 70% | 100% | 100% | 90%
4 | Cc1cc(=O)[nH]c(-c2cc[n+](CCS(=O)(=O)[O-])nc2)n1 [Compound A95] | 40% | 40% | 50% | 20% | 30% | 50% | 30% | 40% | 30% | – | – | – | – | – | – | – | – | –
5 | CC(C)OC(=O)CC[n+]1ccc(-c2ncccn2)cn1 [Compound A81, isopropyl 3-(4-pyrimidin-2-ylpyridazin-1-ium-1-yl)propanoate 2,2,2-trifluoroacetate] | 100% | 100% | 90% | 40% | 40% | 90% | 100% | 90% | 80% | – | – | – | – | – | – | – | – | –
6 | O=C(O)C(O)C[n+]1ccc(-c2ncccn2)cn1 (stereo not drawn) [Compound A180] | – | – | – | – | – | – | – | – | – | 60% | 80% | 70% | 30% | 20% | 70% | 100% | 90% | 90%
